Measured values taken from ChEMBL document CHEMBL5120939, “Novel Isoindolinone-Based Analogs of the Natural Cyclic Peptide Fenestin A: Synthesis and Antitumor Activity” (ACS Med Chem Lett, 2022).
Active and inactive are the calls of the source. The rule behind the calls is not given here. Numbered stars: 1 amine (or outer) side, 2 acyl side, 3 side chain; on linkers, the order of the positions; unused ones are H or OH. Square brackets hold non-standard residues; d marks the D form. Peptide text beside a SMILES is read from it. X1 = O=C1c2ccccc2[C@@](O)(CN(Cc2ccccc2)[*:1])N1CC(=O)[*:2]; X2 = O=C1c2ccccc2[C@](O)(CN(Cc2ccccc2)[*:1])N1CC(=O)[*:2]; Thz = O=C(O)[C@@H]1CSCN1

Columns and labels:
[1] = Cytotoxicity against mouse L929 cells assessed as cell growth inhibition incubated for 48 hrs by MTT assay; assay type: toxicity, cell-based
HepG2 [2] = assay: Antitumor activity against human HepG2 cells assessed as inhibition of cell growth incubated for 48 hrs by MTT assay; assay type: functional, cell-based; conditions: HepG2, 48 h
HeLa [3] = assay: Antitumor activity against human HeLa cells assessed as inhibition of cell growth by MTT assay; assay type: functional, cell-based
HeLa [4] = assay: cells; conditions: Homo sapiens, 48 h
Description: Antitumor activity against human HeLa cells assessed as inhibition of cell growth incubated for 48 hrs by MTT assay

HeLa [5] = assay: Effect on cell morphology in human HeLa cells assessed as cell shrinkage at 26.1 uM incubated for 48 hrs by fluorescent inverted microscopic analysis; assay type: functional, cell-based
HeLa [6] = assay: Upregulation of p53 protein expression in human HeLa cells at 6.2 to 24.6 uM incubated for 48 hrs by Western blotting analysis; assay type: functional, cell-based; conditions: dose 6.2-24.6 µM
HeLa [7] = assay: Upregulation of cytochrome C expression in human HeLa cell cytosol at 6.2 to 24.6 uM incubated for 48 hrs by Western blotting analysis; assay type: functional, subcellular; conditions: dose 6.2-24.6 µM
HepG2 [8] = assay: Effect on cell morphology in human HepG2 cells assessed as decrease in cell contact at 26.1 uM incubated for 48 hrs by fluorescent inverted microscopic analysis; assay type: functional, cell-based
HeLa [9] = assay: Induction of mitochondrial membrane potential loss in human HeLa cells assessed as decrease in fluorescence intensity […] at 12.3 uM by Rhodamine 123 staining based flow cytometric analysis; assay type: functional, cell-based; conditions: time 12-48 hrs, TDE = time-dependent effect
HeLa [10] = assay: Effect on cell morphology in human HeLa cells assessed as decrease in cell contact at 26.1 uM incubated for 48 hrs by fluorescent inverted microscopic analysis; assay type: functional, cell-based
HeLa [11] = assay: Effect on intracellular calcium ion concentration in human HeLa assessed as increase in fluorescence intensity at 12.3 uM by Fluo-3 AM staining based flow cytometric analysis; assay type: functional, cell-based
HeLa [12] = assay: Antitumor activity against human HeLa cells assessed as inhibition of lactate dehydrogenase activity at 37.5 to 200 uM incubated for 48 hrs by Lactate dehydrogenase activity assay; assay type: functional, cell-based; conditions: dose 37.5-200 µM
HeLa [13] = assay: Downregulation of MDM2 protein expression in human HeLa cells at 6.2 to 24.6 uM incubated for 48 hrs by Western blotting analysis; assay type: functional, cell-based; conditions: dose 6.2-24.6 µM
HeLa [14] = assay: Induction of mitochondrial membrane potential loss in human HeLa cells assessed as decrease in fluorescence intensity at 6.2 to 24.6 uM incubated for 12 to 48 hrs by Rhodamine 123 staining based flow cytometric analysis; assay type: functional, cell-based; conditions: dose 6.2-24.6 µM, time 12-48 hrs
HeLa [15] = assay: Induction of cell cycle arrest in human HeLa cells assessed as accumulation at G2/M phase at 12.3 uM by RNAse A/PI staining based flow cytometric analysis; assay type: functional; conditions: time 12-48 hrs, TDE = time-dependent effect
HeLa [16] = assay: Effect on cell morphology in human HeLa cells assessed as disappearance of finger like protrusions at 26.1 uM incubated for 12 to 24 hrs by scanning electron microscopic analysis; assay type: functional, cell-based; conditions: time 12-24 hrs
HeLa [17] = assay: Effect on cell morphology in human HeLa cells assessed as appearance of round cells at 26.1 uM incubated for 12 to 24 hrs by scanning electron microscopic analysis; assay type: functional, cell-based; conditions: time 12-24 hrs
HepG2 [18] = assay: Effect on cell morphology in human HepG2 cells assessed as cell shrinkage at 26.1 uM incubated for 48 hrs by fluorescent inverted microscopic analysis; assay type: functional, cell-based
HeLa [19] = assay: Effect on cell morphology in human HeLa cells assessed as complete disruption at 26.1 uM incubated for 48 hrs by scanning electron microscopic analysis; assay type: functional, cell-based

Compound | IC50 (HepG2 [2]) [µM] | IC50 (HeLa [4]) [µM] | IC50 at 48 h [1] [µM] | further results
CC[C@H](C)[C@@H]1NC(=O)[C@H](CC(C)C)NC(=O)[C@@H]2CCCN2C(=O)[C@@H]2CCCN2C(=O)CN2C(=O)c3ccccc3[C@]2(O)CN(Cc2ccccc2)C1=O (cyclo(I[X2]PPL)) | 40.3 | 36.5 | > 400 | IC50 (HeLa [3]): 36.5 µM
CC[C@H](C)[C@@H]1NC(=O)[C@H](CC(C)C)NC(=O)[C@@H]2CSCN2C(=O)[C@@H]2CSCN2C(=O)CN2C(=O)c3ccccc3[C@@]2(O)CN(Cc2ccccc2)C1=O | 24.7 | 12.3 | 70.9 | 
COc1cccc2c1C(=O)c1c(O)c3c(c(O)c1C2=O)C[C@@](O)(C(=O)CO)C[C@@H]3O[C@H]1C[C@H](N)[C@H](O)[C@H](C)O1 [DOXORUBICIN] | 73.5 |  | 326 | 
CC[C@H](C)[C@@H]1NC(=O)[C@H](CC(C)C)NC(=O)[C@@H]2CSCN2C(=O)[C@H]2CSCN2C(=O)CN2C(=O)c3ccccc3[C@@]2(O)CN(Cc2ccccc2)C1=O |  |  |  | Activity (HeLa [5]): Active; Activity (HeLa [6]): Active; Activity (HeLa [7]): Active; Activity (HepG2 [8]): Active; Activity (HeLa [9]): Tde; Activity (HeLa [10]): Active; Activity (HeLa [11]): Active; inhibition (HeLa [12]): Active; Activity (HeLa [13]): Active; Activity (HeLa [14]): Active; Activity (HeLa [15]): Tde; Activity (HeLa [16]): Active; Activity (HeLa [17]): Active; Activity (HepG2 [18]): Active; Activity (HeLa [19]): Active

Continued, in another order:

IC50 (HepG2 [2]) [µM] | IC50 (HeLa [4]) [µM] | Compound | IC50 at 48 h [1] [µM] | further results
93.3 | 105 | CC[C@H](C)[C@@H]1NC(=O)[C@H](CC(C)C)NC(=O)CN2C(=O)c3ccccc3[C@@]2(O)CN(Cc2ccccc2)C(=O)[C@@H]2CCCN2C(=O)[C@@H]2CCCN2C1=O (cyclo(IPP[X1]L)) | 284 | 
26.9 | 23.7 | CC[C@H](C)[C@@H]1NC(=O)CN2C(=O)c3ccccc3[C@]2(O)CN(Cc2ccccc2)C(=O)[C@H](CC(C)C)NC(=O)[C@@H]2CSCN2C(=O)[C@@H]2CSCN2C1=O (cyclo(I[Thz][Thz]L[X2])) | > 400 | 
49 | 82.2 | CC[C@H](C)[C@@H]1NC(=O)[C@H](CC(C)C)NC(=O)CN2C(=O)c3ccccc3[C@@]2(O)CN(Cc2ccccc2)C(=O)[C@@H]2CSCN2C(=O)[C@@H]2CSCN2C1=O | 274 | 
33.5 | 28.2 | CC[C@H](C)[C@@H]1NC(=O)[C@H](CC(C)C)NC(=O)[C@@H]2CCCN2C(=O)CN2C(=O)c3ccccc3[C@]2(O)CN(Cc2ccccc2)C(=O)[C@@H]2CCCN2C1=O (cyclo(IP[X2]PL)) | > 400 | IC50 (HeLa [3]): 28.2 µM
37.7 | 32.7 | CC[C@H](C)[C@@H]1NC(=O)CN2C(=O)c3ccccc3[C@]2(O)CN(Cc2ccccc2)C(=O)[C@H](CC(C)C)NC(=O)[C@@H]2CCCN2C(=O)[C@@H]2CCCN2C1=O (cyclo(IPPL[X2])) | > 400 | 
27.3 | 69.3 | CC[C@H](C)[C@@H]1NC(=O)[C@H](CC(C)C)NC(=O)[C@@H]2CSCN2C(=O)CN2C(=O)c3ccccc3[C@]2(O)CN(Cc2ccccc2)C(=O)[C@@H]2CSCN2C1=O | 293 | 
